Assay results reported in US20140322250A1, “Peptides for the Treatment of Multiple Sclerosis and Related Diseases” (priority 2013, published 2014).
Where no end group is shown, it is not given here. [ ]: non-standard residue; d: D form.

How the values were obtained:
[1] = Pharmacokinetic study, plasma concentration by LC-MS/MS; type: in vivo, male Sprague Dawley rat
Experimental: A pharmacokinetic study of all-D-TTNYT (SEQ ID NO:2) (RAP-103) following intravenous and oral administration was conducted at a target dose level of 1 mg/kg in the male Sprague Dawley rat. The concentration of RAP-103 in each plasma and brain sample was measured using a suitable LC-MS/MS assay. The assay used was a research grade assay (RGA-1) which was established by assessing the accuracy, precision and the linearity of the method. Plasma concentrations generated were used to evaluate the pharmacokinetic parameters of all-D-TTNYT (SEQ ID NO:2) (RAP-103).
The dose formulation was administered intravenously to some animals as a slow bolus over ca 30 s via the tail vein and to a different group of animals orally via gastric gavage at a target dose volume of 1 mL/kg, to achieve a target dose level of 1 mg/kg. The dose volume administered was calculated according to the bodyweight of the animal on the day of dosing. The weight of administered dose was recorded. […] Results expressed as ng/mL

[2] = 6.0 mg daily intranasal
Experimental: Their neurological examination confirmed increased deep tendon reflexes, spasticity of the lower limbs and pyramidal weakness of the legs. Therapy, consisting of 6.0 mg of Peptide T daily, was self-administered via 4 metered intranasal sprays, delivered three times daily.

CCR2 = CCR2 (Homo sapiens, UniProt P41597); type: cell-based; conditions: for inhibition of CCR2 (MCP-1) elicited chemotaxis: FIG. 4, 20 pM peptide 30 minutes prior, MCP-1 0.6 nM for 2 hours; for blocking CCL2 (MCP-1) chemotaxis: FIG. 3, tested at 10^−14 M
Source text: Triplicate determinations were made and results are expressed as the mean plus or minus SEM. The experiment shown is a direct comparison among all RAPs. Statistical analysis was by unpaired t-test, with significance set at the p<0.01 (*) level for difference from CCL2 only chemotaxis.
Data are the average of 2 separate experiments, conducted with triplicate determinations. Data (chemotactic index) are presented as mean±SEM. The IC50 for inhibition of MCP-1 or MIP-1β was generated by a nonlinear inhibition curve fit in GraphPad Prism software, version 5.0. […] Data are presented as mean±SEM. *P<0.05, **P<0.01 vs RAP-103 untreated.
Triplicate determinations were performed and results are expressed as the mean plus or minus SEM. The experiment shown is a direct comparison among all RAPs. Statistical analysis was by unpaired t-test, with significance set at the p<0.01 (*) level for difference from CCL2 only chemotaxis.
A representative experiment is shown comprising triplicate determinations and is presented as relative fluorescence units, Mean±SEM.

[3] = tested on: β-Integrin-mediated adhesion to human fibronectin; assay: MCP-1 elicited adhesion of human monocytes to human fibronectin; type: cell-based; conditions: FIG. 5, 10 minutes pretreatment
Experimental: Human monocytes were treated with the indicated doses of all-D-(IDNYT) for 10 minutes prior to adherence to the β-integrin human fibronectin. Data is the average of two separate experiments, conducted with triplicate determinations. Data are presented as Mean±SEM of the normalized adherence response from two experiments. The IC50 for inhibition of MCP-1 stimulated adherence was generated using a nonlinear inhibition curve fit in GraphPad Prism Version 5.0.

response to bradykinin = conditions: amounts up to 50,000 times the standard challenge of bradykinin; Stewart and Woolley 1965; cited from earlier work
[4] = molecular target: TLR4 on human monocyte-derived immature dendritic cells (human, UniProt O00206 24-839); assay: cell-based or functional assay
TLR4 on human monocyte-derived immature dendritic cells, sequence (O00206 24-839): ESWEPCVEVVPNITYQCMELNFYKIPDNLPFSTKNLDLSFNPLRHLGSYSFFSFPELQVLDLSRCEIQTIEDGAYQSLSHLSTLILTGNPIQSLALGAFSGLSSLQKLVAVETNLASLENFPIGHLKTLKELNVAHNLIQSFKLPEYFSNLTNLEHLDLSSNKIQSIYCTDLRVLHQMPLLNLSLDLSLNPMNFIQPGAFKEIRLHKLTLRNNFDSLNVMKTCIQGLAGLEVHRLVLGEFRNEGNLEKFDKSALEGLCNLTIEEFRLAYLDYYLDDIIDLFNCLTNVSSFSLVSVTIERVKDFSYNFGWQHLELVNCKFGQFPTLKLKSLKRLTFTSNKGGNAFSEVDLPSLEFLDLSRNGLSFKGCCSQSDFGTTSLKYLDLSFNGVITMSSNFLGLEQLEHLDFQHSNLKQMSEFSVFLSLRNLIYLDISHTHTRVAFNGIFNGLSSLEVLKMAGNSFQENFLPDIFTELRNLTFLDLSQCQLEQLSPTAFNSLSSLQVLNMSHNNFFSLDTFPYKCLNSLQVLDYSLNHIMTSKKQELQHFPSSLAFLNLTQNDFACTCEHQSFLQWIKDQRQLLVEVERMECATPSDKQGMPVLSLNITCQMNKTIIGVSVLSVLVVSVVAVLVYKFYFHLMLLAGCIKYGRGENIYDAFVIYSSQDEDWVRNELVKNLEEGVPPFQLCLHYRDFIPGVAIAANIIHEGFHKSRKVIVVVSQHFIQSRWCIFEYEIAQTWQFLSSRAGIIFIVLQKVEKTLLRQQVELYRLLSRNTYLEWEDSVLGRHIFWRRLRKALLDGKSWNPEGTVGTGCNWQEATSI

CCR2, sequence (P41597 whole entry): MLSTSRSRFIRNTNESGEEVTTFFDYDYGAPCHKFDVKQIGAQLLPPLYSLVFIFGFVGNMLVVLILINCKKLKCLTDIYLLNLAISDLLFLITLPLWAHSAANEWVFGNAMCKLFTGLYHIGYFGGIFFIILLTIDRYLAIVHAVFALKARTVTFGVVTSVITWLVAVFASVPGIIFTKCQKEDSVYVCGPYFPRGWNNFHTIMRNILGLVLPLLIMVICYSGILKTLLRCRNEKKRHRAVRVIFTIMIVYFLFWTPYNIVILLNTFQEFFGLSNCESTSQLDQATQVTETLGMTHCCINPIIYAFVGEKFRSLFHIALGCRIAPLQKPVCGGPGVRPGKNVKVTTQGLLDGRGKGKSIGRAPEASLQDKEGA

In the case of `C[C@H](O)[C@@H](N)C(=O)N[C@@H](C(=O)N[C@H](CC(N)=O)C(=O)N[C@H](Cc1ccc(O)cc1)C(=O)N[C@@H](C(=O)O)[C@H](C)O)[C@H](C)O` [RAP-103, all-D-TTNYT], the “time of peak levels in plasma” value ([1]; 1 mg/kg, rat) is reported as 10 to 15 min, the concentration in plasma ([1]; intravenous 1 mg/kg, 0.5 h, individual animals) is reported as 561 ng/mL and the “tolerability of dose administrations” value ([1]; intravenous and oral gavage, 1 mg/kg, rat) is reported as “well tolerated”. The level at 0.083 h ([1]; male, Sprague Dawley, rat, plasma, iv, 1 mg/kg, intravenous 1 mg/kg, 0.083 h, individual animals) was 3050 ng/mL, the level at 0.167 h ([1]; male, Sprague Dawley, rat, plasma, iv, 1 mg/kg, intravenous 1 mg/kg, 0.167 h, individual animals) was 2400 ng/mL and the level at 0.25 h ([1]; male, Sprague Dawley, rat, plasma, iv, 1 mg/kg, intravenous 1 mg/kg, 0.25 h, individual animals) was 2050 ng/mL. It also gave a level at 0.5 h ([1]; male, Sprague Dawley, rat, plasma, iv, 1 mg/kg, intravenous 1 mg/kg, 0.5 h, individual animals) of 558 ng/mL and a level at 1 h ([1]; male, Sprague Dawley, rat, plasma, iv, 1 mg/kg, intravenous 1 mg/kg, 1 h, individual animals) of 405 ng/mL.

For ASTTTNYY [Peptide T], the patient-reported change ([2]; after 2 weeks, continued to end of week 10) was “definite improvements” and the “time to walk 10 meters” value ([2]; end of week 10, 65 seconds initially, one patient) was 15 s.

For Asn-Thr-Arg-Tyr-Arg [NYRYR], the “inhibition of CCR2 (MCP-1) elicited chemotaxis” value (shortened to “inhibition of CCR2”) (CCR2) was “potently block”.

In the case of “Asn-Thr-Ser-Tyr-Arg ([dN][dT][dS][dY][dR]) [NTSYR]”, the “blocking CCL2 (MCP-1) chemotaxis” value (CCR2) is reported as “retain potency”.

With “Asn-Thr-Ser-Tyr-Gly ([dN][dT][dS][dY]G) [NTSYG]” the “inhibition of CCR2” value (CCR2) was “potently block”.

In the case of “Glu-Thr-Trp-Tyr-Ser ([dE][dT][dW][dY][dS]) [ETWYS]”, the “inhibition of CCR2” value (CCR2) is reported as “potently block”.

With “Ile-Asn-Asn-Tyr-Thr ([dI][dN][dN][dY][dT]) [IDNYT (SEQ ID NO:8)]” the “inhibition of CCR2” value (CCR2) was “potently block”.

For “Ile-Asp-Asn-Tyr Thr ([dI][dD][dN][dY][dT]) [IDNYT (SEQ ID NO:6)]”, the “inhibition of CCR2” value (CCR2) was “potently block” and the “blocking of MCP-1 elicited adhesion” value [3] was “potently blocking”.

For “Ser-Ser-Thr-Tyr-Arg ([dS][dS][dT][dY][dR]) [SSTYR]”, the “blocking CCL2 (MCP-1) chemotaxis” value (CCR2) was “retain potency”.

For “Thr-Thr-Ser-Tyr-Thr ([dT][dT][dS][dY][dT]) [TTSYT]”, the “blocking CCL2 (MCP-1) chemotaxis” value (CCR2) was “retain potency”.

In the case of all-D-bradykinin, the “inhibition of the response to bradykinin or bradykinin-like effect” value (response to bradykinin) is listed as “neither any inhibition of the response to bradykinin, or any bradykinin-like effect”.

In the case of [dT][dT][dN][dY][dT] [all-D-TTNYT (RAP-103)], the “IC50 for inhibition of LPS (100 ng/mL) induced TNFα production in human monocyte-derived iDC (FIG. 6)” value [4] is reported as roughly 0.1 pM.
